Test results reported in publication PMC10574094, “Discovery of a SHP2 Degrader with In Vivo Anti-Tumor Activity” (Molecules, 2023).
Residues, ends and D or L forms follow the SMILES beside them. *: point of attachment. Cbz = O=C(OCc1ccccc1)*

Assays:
[1] = target: T1, SHP2 (Homo sapiens, UniProt Q06124); assay: SHP2 degradation by Western blotting in HEK293 cells; format: cell-based; set-up: endogenous in cells; host or cells: HEK293; details: for effect on P9-induced SHP2 degradation: HEK293, 16 h, 250 nM P9 in combination with 1 µM 3, 10 µM MG132, 1 µM MLN4924, 40 µM VHL-2 or 40 µM Lenalidomide; for SHP2 degradation (in words) / Degradation at 1 μM / Degradation at 10 μM: HEK293 cells; for SHP2 degradation (in words): 1 and 10 µM; for Degradation at 1 μM / Degradation at 10 μM: 16 h treatment
T1 sequence (Q06124 1-593): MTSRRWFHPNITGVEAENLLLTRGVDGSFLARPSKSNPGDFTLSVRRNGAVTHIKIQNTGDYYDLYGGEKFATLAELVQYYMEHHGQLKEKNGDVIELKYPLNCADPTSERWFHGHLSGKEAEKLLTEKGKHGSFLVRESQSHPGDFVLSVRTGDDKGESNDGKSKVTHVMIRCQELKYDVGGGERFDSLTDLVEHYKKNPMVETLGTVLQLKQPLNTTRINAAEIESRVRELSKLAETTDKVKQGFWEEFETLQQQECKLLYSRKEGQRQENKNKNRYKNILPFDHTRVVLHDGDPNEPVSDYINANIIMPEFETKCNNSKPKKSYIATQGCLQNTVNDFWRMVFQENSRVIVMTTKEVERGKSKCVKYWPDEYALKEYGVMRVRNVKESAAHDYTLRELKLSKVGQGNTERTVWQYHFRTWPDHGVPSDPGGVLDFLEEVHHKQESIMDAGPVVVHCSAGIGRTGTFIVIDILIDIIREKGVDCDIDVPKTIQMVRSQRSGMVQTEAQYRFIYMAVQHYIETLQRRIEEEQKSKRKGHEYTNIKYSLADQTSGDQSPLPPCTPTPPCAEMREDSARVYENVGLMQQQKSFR
Protocol: HEK293, SKBR3, U2OS, MCF7 and A549 cells were grown in DMEM supplemented with 10% FBS, penicillin (50 units/mL), and streptomycin (50 μg/mL) in a 37 °C incubator containing 5% CO2. […] For western-blot analysis, protein samples were separated by SDS-PAGE, transferred to nitrocellulose membranes, and incubated overnight at 4 °C with corresponding primary antibodies diluted in 5% BSA in phosphate-buffered saline Tween (PBST). SuperSignal™ West Pico PLUS (PI34580; Thermo Scientific) was used to visualize the antibodies in the bioanalytical imaging system (Azure Biosystems c500). […] Anti-PTP1B (ab244207) antibody was purchased from Abcam. For colony formation assay, a total of approximately 200–500 cells were seeded to each well in a 12-well plate.
Supplemental Figures, Schemes, and Tables:
Figure S1. Western blots of degradation assay for PROTAC screening. (A) Degradation assay of
compo un ds i n Table 1 at 1 μM fo r 16 hours in H EK29 3 cells. (B) Degradation assay of compounds in Table
1 at 10 μM for 16 hours in HEK293 cells. (C) Degradation assay of compounds in Table 2 at 1 μM for 16

[2] = target: T2, full-length SHP2 (1-528) (Homo sapiens, UniProt Q06124); assay: SHP2 allosteric inhibition assay (DiFMUP substrate); format: biochemical; details: full length SHP2, enzymatic assay
T2 construct: The SHP2 protein (Aa 1–528) was cloned into a pET-21a(+) vector; His; made in house; host or cells: E. coli BL21(DE3)
T2 sequence (Q06124 1-528): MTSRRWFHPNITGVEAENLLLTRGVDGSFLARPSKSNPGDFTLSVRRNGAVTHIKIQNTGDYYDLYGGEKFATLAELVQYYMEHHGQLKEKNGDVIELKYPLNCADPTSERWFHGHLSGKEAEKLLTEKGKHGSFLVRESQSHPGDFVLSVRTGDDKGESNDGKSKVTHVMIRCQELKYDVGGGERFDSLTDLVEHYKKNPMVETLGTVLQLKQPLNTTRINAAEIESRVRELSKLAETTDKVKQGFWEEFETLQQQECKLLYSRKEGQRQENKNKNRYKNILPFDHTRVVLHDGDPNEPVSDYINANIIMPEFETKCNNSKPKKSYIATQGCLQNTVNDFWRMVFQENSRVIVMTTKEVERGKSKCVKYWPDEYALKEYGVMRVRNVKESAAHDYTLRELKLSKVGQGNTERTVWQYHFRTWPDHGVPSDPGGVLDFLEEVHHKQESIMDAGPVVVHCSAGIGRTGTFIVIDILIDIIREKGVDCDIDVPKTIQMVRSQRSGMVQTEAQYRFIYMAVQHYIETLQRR
Protocol: The SHP2 protein (Aa 1–528) was cloned into a pET-21a(+) vector. Bacterial BL21(DE3) (Novagen) was used as an expression host, and the induction of protein expression was carried out in LB media with 1 mM IPTG at 18 °C overnight. Cell pellets were stored at −80 °C for subsequent protein purification. Protein purification was conducted at 4 °C. Frozen cell pellets were lysed by sonication in 40 mL cold lysis buffer (50 mM Tris-HCl, pH 8.0, 150 mM NaCl, 5 mM imidazole, and 1 mM PMSF) per liter cell pellet. Cell lysates were clarified by centrifuging for 15 min at 6000 rpm. The supernatant was incubated with HisPur Ni-NTA resin (Thermo Scientific, Waltham, MA, USA) for 2 h, and then packed onto a column and washed with 50 resin volume of buffer A (50 mM Tris-HCl, pH 8.0, 500 mM NaCl, 5 mM imidazole). The HIS-tagged proteins were eluted with Buffer B (50 mM Tris-HCl, pH = 8.0, 500 mM NaCl, 300 mM imidazole,). Pooled HIS-protein-containing fractions were concentrated, loaded onto a HiLoad 26/600 Superdex 75 column (GE Healthcare Biosciences, Piscataway, NJ, USA), and eluted with storage buffer (50 mM Tris-HCl, pH 8.0, 150 mM NaCl, 1 mM DTT, 10% glycerol). Proteins used for inhibition assays were purified using Ni-NTA resin (Qiagen, Hilden, Germany) followed by size exclusion column chromatography (ÄKTA pure, Cytiva, Marlborough, MA, USA) and the purity was determined to be >95% by SDS-PAGE and Coomassie staining. The protein was aliquoted and stored at −80 °C.
The catalytic activity of SHP2 (1-528) was assayed with 6,8-Difluoro-4-Methylumbelliferyl Phosphate (DiFMUP, Invitrogen, cat# D6567) as a substrate in 3,3-Dimethylglutaric acid (DMG) buffer (50 mM DMG, pH 7.0, 1 mM EDTA, 18 mM NaCl, 0.01% Triton X-100) at 25 °C. To determine the IC50 values, the assays were performed in 96-well plates (Corning Costar 3915). Series diluted compounds were incubated with 0.5 nM of SHP2 and 0.5 μM of peptide IRS1_pY1172(dPEG8)pY1222 (sequence H2N-LN(pY)IDLDLV(dPEG8)LST(pY)ASINFQK-amide). After 30 min incubation at room temperature, the substrate DiFMUP was added to the reaction (200 μM final concentration, total reaction volume is […]) and incubated at 25 °C for 10 min. The reaction was then quenched by adding 40 μL of 160 μM bpV(Phen) (Sigma–Aldrich, cat# SML0889) solution. The fluorescence signal was monitored with a CLARIOstar Plus Microplate Spectrophotometer (BMG Labtech) using excitation and emission wavelengths of 340 and 450 nm, respectively. The inhibitordose-response curves were analyzed using normalized IC50 regression curve fitting with control-based normalization. Data were fitted using Prism GraphPad 9.2.0.

Compound | Degradation at 1 μM [1] | Degradation at 10 μM [1] | IC50 [2] | effect on P9-induced SHP2 degradation [1] | SHP2 degradation (in words) [1]
CC(C)C[C@@H](C=O)NC(=O)[C@H](CC(C)C)NC(=O)[C@H](CC(C)C)NC(=O)OCc1ccccc1 [MG-132, reference compound] (Cbz-Leu-Leu-Leu-aldehyde) | – | – | – | markedly reduced the extent of SHP2 degradation | –
NS(=O)(=O)OC[C@@H]1C[C@@H](n2ccc3c(N[C@H]4CCc5ccccc54)ncnc32)C[C@@H]1O [MLN-4924, reference compound] | – | – | – | markedly reduced the extent of SHP2 degradation | –
NCC1(CCCCCC(=O)O)CCN(c2cnc(Sc3cccc(Cl)c3Cl)c(N)n2)CC1 [compound 4] | – | – | 90 nM | – | –
Nc1cccc2c1CN(C1CCC(=O)NC1=O)C2=O (stereo not shown) [lenalidomide, reference compound] | – | – | – | did not affect the SHP2 degradation induced by P9 | –

Continued, in another order:

Degradation at 1 μM [1] | Degradation at 10 μM [1] | IC50 [2] | Compound | effect on P9-induced SHP2 degradation [1] | SHP2 degradation (in words) [1]
<10% | <10% | 158 ± 26.5 nM | Cc1ncsc1-c1ccc([C@H](C)NC(=O)[C@@H]2C[C@@H](O)CN2C(=O)[C@@H](NC(=O)CCOCCOCCOCCNC(=O)CCCCCC2(CN)CCN(c3cnc(Sc4cccc(Cl)c4Cl)c(N)n3)CC2)C(C)(C)C)cc1 [P3, (2S,4R)-1-((S)-22-(1-(6-amino-5-((2,3-dichlorophenyl)thio)pyrazin-2-yl)-4-(aminomethyl)piperidin-4-yl)-2-(tert-butyl)-4,17-dioxo-7,10,13-trioxa-3,16-diazadocosanoyl)-4-hydroxy-N-((S)-1-(4-(4-methylthiazol-5-yl)phenyl)ethyl)pyrrolidine-2-carboxamide] | – | did not induce significant degradation of SHP2
<10% | <10% | 156 ± 15.8 nM | Cc1ncsc1-c1ccc([C@H](C)NC(=O)[C@@H]2C[C@@H](O)CN2C(=O)[C@@H](NC(=O)CCOCCOCCOCCOCCNC(=O)CCCCCC2(CN)CCN(c3cnc(Sc4cccc(Cl)c4Cl)c(N)n3)CC2)C(C)(C)C)cc1 [P4, (2S,4R)-1-((S)-25-(1-(6-amino-5-((2,3-dichlorophenyl)thio)pyrazin-2-yl)-4-(aminomethyl)piperidin-4-yl)-2-(tert-butyl)-4,20-dioxo-7,10,13,16-tetraoxa-3,19-diazapentacosanoyl)-4-hydroxy-N-((S)-1-(4-(4-methylthiazol-5-yl)phenyl)ethyl)pyrrolidine-2-carboxamide] | – | did not induce significant degradation of SHP2
<10% | <10% | 166 ± 11.9 nM | Cc1ncsc1-c1ccc([C@H](C)NC(=O)[C@@H]2C[C@@H](O)CN2C(=O)[C@@H](NC(=O)CCOCCOCCOCCOCCOCCNC(=O)CCCCCC2(CN)CCN(c3cnc(Sc4cccc(Cl)c4Cl)c(N)n3)CC2)C(C)(C)C)cc1 [P5, (2S,4R)-1-((S)-28-(1-(6-amino-5-((2,3-dichlorophenyl)thio)pyrazin-2-yl)-4-(aminomethyl)piperidin-4-yl)-2-(tert-butyl)-4,23-dioxo-7,10,13,16,19-pentaoxa-3,22-diazaoctacosanoyl)-4-hydroxy-N-((S)-1-(4-(4-methylthiazol-5-yl)phenyl)ethyl)pyrrolidine-2-carboxamide] | – | did not induce significant degradation of SHP2
– | – | 119 ± 25.4 nM | Cc1ncsc1-c1ccc([C@H](C)NC(=O)[C@@H]2C[C@@H](O)CN2C(=O)[C@@H](NC(=O)CCCCCCCN2CCN(C(=O)CCCCCC3(CN)CCN(c4cnc(Sc5cccc(Cl)c5Cl)c(N)n4)CC3)CC2)C(C)(C)C)cc1 [P7, (2S,4R)-1-((S)-2-(8-(4-(6-(1-(6-amino-5-((2,3-dichlorophenyl)thio)pyrazin-2-yl)-4-(aminomethyl)piperidin-4-yl)hexanoyl)piperazin-1-yl)octanamido)-3,3-dimethylbutanoyl)-4-hydroxy-N-((S)-1-(4-(4-methylthiazol-5-yl)phenyl)ethyl)pyrrolidine-2-carboxamide] | – | –
– | – | 104 ± 9.3 nM | Cc1ncsc1-c1ccc([C@H](C)NC(=O)[C@@H]2C[C@@H](O)CN2C(=O)[C@@H](NC(=O)CCCCCCCCN2CCN(C(=O)CCCCCC3(CN)CCN(c4cnc(Sc5cccc(Cl)c5Cl)c(N)n4)CC3)CC2)C(C)(C)C)cc1 [P8, (2S,4R)-1-((S)-2-(9-(4-(6-(1-(6-amino-5-((2,3-dichlorophenyl)thio)pyrazin-2-yl)-4-(aminomethyl)piperidin-4-yl)hexanoyl)piperazin-1-yl)nonanamido)-3,3-dimethylbutanoyl)-4-hydroxy-N-((S)-1-(4-(4-methylthiazol-5-yl)phenyl)ethyl)pyrrolidine-2-carboxamide] | – | –
– | – | 111 ± 8.2 nM | Cc1ncsc1-c1ccc([C@H](C)NC(=O)[C@@H]2C[C@@H](O)CN2C(=O)[C@@H](NC(=O)CCCCCCCCCCN2CCN(C(=O)CCCCCC3(CN)CCN(c4cnc(Sc5cccc(Cl)c5Cl)c(N)n4)CC3)CC2)C(C)(C)C)cc1 [P10, (2S,4R)-1-((S)-2-(11-(4-(6-(1-(6-amino-5-((2,3-dichlorophenyl)thio)pyrazin-2-yl)-4-(aminomethyl)piperidin-4-yl)hexanoyl)piperazin-1-yl)undecanamido)-3,3-dimethylbutanoyl)-4-hydroxy-N-((S)-1-(4-(4-methylthiazol-5-yl)phenyl)ethyl)pyrrolidine-2-carboxamide] | – | –
